Numbering of substitutions follows the chain as printed. Names may count otherwise. “And” between values parts separate entries of the source, which are not always exact repeats. Equal values may be shown once. Read-outs that look alike come from different tables or passages of the source.
Key:
[1] = molecular target: wild-type human arginase I; conditions: isothermal titration calorimetry; ref [30] and [48]; cited from earlier work
D183A human arginase I [2] = molecular target: T1, D183A human arginase I (Homo sapiens, UniProt P05089, D183A); test: Isothermal titration calorimetry, D183A human arginase I; type: binding
T1 sequence (P05089 1-322 D183A): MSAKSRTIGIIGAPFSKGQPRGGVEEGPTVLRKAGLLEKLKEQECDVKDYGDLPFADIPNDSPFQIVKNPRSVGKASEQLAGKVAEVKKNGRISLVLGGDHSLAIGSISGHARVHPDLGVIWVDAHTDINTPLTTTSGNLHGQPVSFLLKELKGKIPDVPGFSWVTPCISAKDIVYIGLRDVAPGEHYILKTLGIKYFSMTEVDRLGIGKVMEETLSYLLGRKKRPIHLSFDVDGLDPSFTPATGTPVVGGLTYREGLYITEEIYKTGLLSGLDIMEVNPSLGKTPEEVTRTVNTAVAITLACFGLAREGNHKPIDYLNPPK

D183N human arginase I [3] = molecular target: T2, D183N human arginase I (Homo sapiens, UniProt P05089, D183N); test: Isothermal titration calorimetry, D183N human arginase I; type: binding
T2 sequence (P05089 1-322 D183N): T1 sequence (P05089 1-322 D183A) with A183N

wild-type rat arginase I = molecular target: T3, wild-type rat arginase I (Rattus norvegicus, UniProt P07824); conditions: ref [14], cited from earlier work
T3 sequence (P07824 1-323): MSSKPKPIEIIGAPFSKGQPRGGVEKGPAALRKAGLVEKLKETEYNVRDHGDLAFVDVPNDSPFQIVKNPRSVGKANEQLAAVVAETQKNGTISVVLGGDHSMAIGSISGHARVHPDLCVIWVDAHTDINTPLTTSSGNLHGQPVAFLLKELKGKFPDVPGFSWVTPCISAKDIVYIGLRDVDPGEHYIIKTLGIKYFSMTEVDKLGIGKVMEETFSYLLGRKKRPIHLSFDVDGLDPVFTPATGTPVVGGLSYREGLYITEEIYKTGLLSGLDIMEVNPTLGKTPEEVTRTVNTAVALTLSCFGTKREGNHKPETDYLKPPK

N130A rat arginase I = molecular target: T4, N130A rat arginase I (Rattus norvegicus, UniProt P07824, N130A); test: 14C-urea radioactive arginase assay, N130A rat arginase I; type: biochemical
T4 sequence (P07824 1-323 N130A): T3 sequence (P07824 1-323) with N130A

T135S rat arginase I = molecular target: T5, T135S rat arginase I (Rattus norvegicus, UniProt P07824, T135S); type: biochemical
T5 sequence (P07824 1-323 T135S): T3 sequence (P07824 1-323) with T135S

T135A rat arginase I = molecular target: T6, T135A rat arginase I (Rattus norvegicus, UniProt P07824, T135A); test: 14C-urea radioactive arginase assay, T135A rat arginase I; type: biochemical
T6 sequence (P07824 1-323 T135A): T3 sequence (P07824 1-323) with T135A

rat arginase I [4] = conditions: ref [26], cited from earlier work; for diminished catalytic activity based on kcat/KM relative to L-arginine / increased KM value relative to L-arginine: alternative substrate
[5] = tested on: proclavaminic acid amidinohydrolase; conditions: ref [54]; cited from earlier work
[6] = tested on: wild-type human arginase I; conditions: substrate L-arginine; ref [30] and [48]; cited from earlier work
D183N human arginase I [7] = molecular target: T2, D183N human arginase I; test: 14C-urea radioactive arginase assay, D183N human arginase I; type: biochemical; conditions: substrate L-arginine; pH 9.0, room temperature
D183A human arginase I [8] = molecular target: T1, D183A human arginase I; conditions: substrate L-arginine; pH 9.0, room temperature
rat arginase I [9] = conditions: deletion of the carboxylate group of ABH; ref [28]; cited from earlier work
[10] = substrate: N=C(N)NCCC[C@H](N)C(=O)O; test: 14C-urea radioactive arginase assay, D183A rat arginase I; type: biochemical; conditions: other: substrate L-arginine, pH 9.0, room temperature
[11] = substrate: N=C(N)NCCC[C@H](N)C(=O)O; test: 14C-urea radioactive arginase assay, N130A rat arginase I; type: biochemical; conditions: other: substrate L-arginine, pH 9.0, room temperature
[12] = substrate: N=C(N)NCCC[C@H](N)C(=O)O; test: 14C-urea radioactive arginase assay, N130F rat arginase I; type: biochemical; conditions: other: substrate L-arginine, pH 9.0, room temperature
[13] = substrate: N=C(N)NCCC[C@H](N)C(=O)O; type: biochemical, rat; conditions: other: substrate L-arginine, pH 9.0, room temperature
[14] = substrate: N=C(N)NCCC[C@H](N)C(=O)O; test: 14C-urea radioactive arginase assay, T135A rat arginase I; type: biochemical; conditions: other: substrate L-arginine, pH 9.0, room temperature
[15] = substrate: N=C(N)NCCC[C@H](N)C(=O)O; test: 14C-urea radioactive arginase assay, N130Y rat arginase I; type: biochemical; conditions: other: substrate L-arginine, pH 9.0, room temperature
[16] = progress curves in the presence of 30 µM BEC linear with time

Q: Which Kd [1] does the source give for `N[C@@H](CCCCB(O)O)C(=O)O` [ABH, 2(S)-amino-6-boronohexanoic acid] here?
A: Its Kd is 5 nM.

Q: And the Kd (D183A human arginase I [2])?
A: The Kd was 7000 nM.

Q: And the “inhibitor binding affinity weakened relative to wild-type” value (D183A human arginase I [2]; D183A vs wild-type human arginase I, calorimetric Kd)?
A: Its value is ~ 1400 fold and 1400 fold.

Q: And the Kd (D183N human arginase I [3])?
A: The Kd was 147 nM.

Q: And the “inhibitor binding affinity weakened relative to wild-type” value (D183N human arginase I [3]; D183N vs wild-type human arginase I, calorimetric Kd)?
A: Its value is 29 fold.

Q: With `N[C@@H](CSCCB(O)O)C(=O)O` [BEC, S-(2-boronoethyl)-L-cysteine] as the molecule, how does the inhibitor binding behaviour (wild-type rat arginase I) read?
A: The inhibitor binding behaviour was “slow-binding inhibitor”.

Q: And the Ki (wild-type rat arginase I; slow-binding kinetics observed, Ki = koff/kon)?
A: Its Ki is 400 nM.

Q: What about the Ki (N130A rat arginase I) of the same molecule?
A: The Ki was 13000 nM.

Q: What about the “diminished enzyme-inhibitor affinity relative to wild-type” value (N130A rat arginase I; N130A vs wild-type rat arginase I) of the same molecule?
A: The value was ~ 30 fold.

Q: What about the inhibitor binding behaviour (N130A rat arginase I; [16]) of the same molecule?
A: The inhibitor binding behaviour was “no longer a slow-binding inhibitor”.

Q: And the Ki (T135S rat arginase I)?
A: The Ki was 125 nM.

Q: What about the koff (T135S rat arginase I) of the same molecule?
A: The koff was 0.00155 s⁻¹.

Q: What about the kon (T135S rat arginase I) of the same molecule?
A: The kon was 12400 M⁻¹ s⁻¹.

Q: What about the inhibitor binding behaviour (T135S rat arginase I; non-linear progress curves in the presence of BEC) of the same molecule?
A: The inhibitor binding behaviour was “slow-binding behavior”.

Q: What about the Ki (T135A rat arginase I) of the same molecule?
A: The Ki was 4500 nM.

Q: And the inhibitor binding behaviour (T135A rat arginase I; [16])?
A: Its inhibitor binding behaviour is “does not exhibit slow-binding behavior”.

Q: With `NC(N)=NCCC[C@@H](N)C(=O)O` [D-arginine] as the molecule, how does the substrate activity (rat arginase I [4]) read?
A: The substrate activity was “not a substrate”.

Q: With `N=C(N)NCCC[C@H](N)C(=O)O` [L-arginine] as the molecule, how does the substrate acceptance [5] read?
A: The substrate acceptance was “does not accept L-arginine as a substrate”.

Q: And the Km [6]?
A: Its Km is 1.5 mM.

Q: And the kcat [6]?
A: Its kcat is 190 s⁻¹.

Q: And the Km (D183N human arginase I [7])?
A: The Km was 40 mM.

Q: And the kcat (D183N human arginase I [7])?
A: The kcat was 167 s⁻¹.

Q: What about the kcat (D183A human arginase I [8]) of the same molecule?
A: Its kcat is 68 s⁻¹.

Q: With `NC(N)=NCCC[C@H](O)C(=O)O` [L-argininic acid] as the molecule, how does the “diminished catalytic activity based on kcat/KM relative to L-arginine” value (rat arginase I [4]) read?
A: The value was 3,200 fold.

Q: What about the “increased KM value relative to L-arginine” value (rat arginase I [4]) of the same molecule?
A: The value was 9 fold.

Q: What does the source list for `NCCCCN=C(N)N` [agmatine]?
A: diminished catalytic activity based on kcat/KM relative to L-arginine (rat arginase I [4]): 54,000 fold; increased KM value relative to L-arginine (rat arginase I [4]): 11 fold

Q: For `NCCCCCB(O)O` [descarboxy-ABH], which “loss of inhibitory activity relative to ABH” value (rat arginase I [9]) is on record?
A: The value was 1800 fold.

B1: D183A rat arginase I (Rattus norvegicus; D183A) (protein)
chain: T3 sequence (P07824 1-323) with D183A
Q: Which results are given for B1?
A: Km [10]: 13.9 mM; kcat [10]: 14.7 s⁻¹; kcat/Km [10]: 1100 M⁻¹ s⁻¹

B2: N130A rat arginase I (Rattus norvegicus; N130A) (protein)
chain: T3 sequence (P07824 1-323) with N130A
Q: With B2 as the molecule, how does the Km [11] read?
A: The Km was 50 mM.

Q: And the kcat [11]?
A: Its kcat is 220 s⁻¹.

Q: And the kcat/Km [11]?
A: The kcat/Km was 4400 M⁻¹ s⁻¹.

B3: N130F rat arginase I (Rattus norvegicus; N130F) (protein)
chain: T3 sequence (P07824 1-323) with N130F
Q: With B3 as the molecule, how does the Km [12] read?
A: The Km was 19.3 mM.

Q: What about the kcat [12] of the same molecule?
A: The kcat was 4.8 s⁻¹.

Q: What about the kcat/Km [12] of the same molecule?
A: Its kcat/Km is 250 M⁻¹ s⁻¹.

B4: T135S rat arginase I (Rattus norvegicus; T135S) (protein)
chain: T3 sequence (P07824 1-323) with T135S
Q: With B4 as the molecule, how does the Km [13] read?
A: Its Km is 2.5 mM.

Q: And the kcat [13]?
A: Its kcat is 350 s⁻¹.

Q: And the kcat/Km [13]?
A: Its kcat/Km is 140000 M⁻¹ s⁻¹.

B5: T135A rat arginase I (Rattus norvegicus; T135A) (protein)
chain: T3 sequence (P07824 1-323) with T135A
Q: With B5 as the molecule, how does the Km [14] read?
A: Its Km is 13 mM.

Q: What about the kcat [14] of the same molecule?
A: Its kcat is 260 s⁻¹.

Q: And the kcat/Km [14]?
A: The kcat/Km was 20000 M⁻¹ s⁻¹.

B6: N130Y rat arginase I (Rattus norvegicus; N130Y) (protein)
chain: T3 sequence (P07824 1-323) with N130Y
Q: What does the source list for B6?
A: Km [15]: 21.4 mM; kcat [15]: 17 s⁻¹; kcat/Km [15]: 790 M⁻¹ s⁻¹

— PMC2665027 (Biochemistry, 2009)
